In test [1] the target is JAK2 (Homo sapiens (Human), UniProt O60674). The test can be described thus: JAK2 Z-Lyte biochemical assay. Particulars: commercial JAK2 Z-Lyte assay from Invitrogen. Here is the method: The JAK2 Z-Lyte biochemical assay was performed according to manufacturer's instructions (Life Technologies).
Test [2] addresses PRKCI (Homo sapiens (Human), UniProt P41743). The test can be described thus: KINOMEscan. Particulars: read-out: percent of control. The format is binding. The procedure:
(§1) In vitro profiling of Compound I-2 (1 μM) was performed using the DiscoveRx KINOMEscan® platform.

The target of test [3] is CDK4-cyclinD3 (Homo sapiens (Human), UniProt P11802). The test can be described thus: KINOMEscan. The settings on record: read-out: percent of control. The test is classed as binding. The procedure: as §1
CDK4-cyclinD3, sequence (P11802 whole entry): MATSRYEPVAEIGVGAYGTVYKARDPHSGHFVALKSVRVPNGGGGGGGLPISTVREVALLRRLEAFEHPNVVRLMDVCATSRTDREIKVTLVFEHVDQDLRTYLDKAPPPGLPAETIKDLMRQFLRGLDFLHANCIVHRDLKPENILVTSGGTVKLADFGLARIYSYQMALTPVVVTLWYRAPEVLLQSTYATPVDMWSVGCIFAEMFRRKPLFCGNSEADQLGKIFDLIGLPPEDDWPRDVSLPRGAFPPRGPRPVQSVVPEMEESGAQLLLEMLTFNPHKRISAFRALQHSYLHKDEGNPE
CDK4-cyclinD3, sequence (P30281 whole entry partner): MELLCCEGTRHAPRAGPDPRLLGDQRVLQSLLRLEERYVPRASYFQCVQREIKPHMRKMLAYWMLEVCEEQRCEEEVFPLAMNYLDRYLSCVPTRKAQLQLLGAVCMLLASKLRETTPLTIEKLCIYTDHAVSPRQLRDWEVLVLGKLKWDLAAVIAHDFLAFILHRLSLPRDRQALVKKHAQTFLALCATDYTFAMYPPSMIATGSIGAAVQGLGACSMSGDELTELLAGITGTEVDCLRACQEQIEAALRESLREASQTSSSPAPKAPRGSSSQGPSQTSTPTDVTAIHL
Test [4] concerns the target NDR1 (Homo sapiens (Human), UniProt Q15208). The test can be described thus: KINOMEscan. The test is classed as binding. The settings on record: read-out: percent of control. Here is the method: as §1
Test [5] concerns the target p38-beta (Homo sapiens (Human), UniProt Q15759). The test can be described thus: KINOMEscan. The settings on record: read-out: percent of control. The format is binding. The procedure:
as §1

The target in test [6] is ABL1(H396P)-phosphorylated (Homo sapiens (Human), UniProt P00519, H396P). The test can be described thus: KINOMEscan. The format is binding. Particulars: read-out: percent of control. The procedure:
as §1

In test [7] the target is PKN2 (Homo sapiens (Human), UniProt Q16513). The test can be described thus: KINOMEscan. The format is binding. Particulars: read-out: percent of control. The procedure: as §1
PKN2, sequence (Q16513 whole entry): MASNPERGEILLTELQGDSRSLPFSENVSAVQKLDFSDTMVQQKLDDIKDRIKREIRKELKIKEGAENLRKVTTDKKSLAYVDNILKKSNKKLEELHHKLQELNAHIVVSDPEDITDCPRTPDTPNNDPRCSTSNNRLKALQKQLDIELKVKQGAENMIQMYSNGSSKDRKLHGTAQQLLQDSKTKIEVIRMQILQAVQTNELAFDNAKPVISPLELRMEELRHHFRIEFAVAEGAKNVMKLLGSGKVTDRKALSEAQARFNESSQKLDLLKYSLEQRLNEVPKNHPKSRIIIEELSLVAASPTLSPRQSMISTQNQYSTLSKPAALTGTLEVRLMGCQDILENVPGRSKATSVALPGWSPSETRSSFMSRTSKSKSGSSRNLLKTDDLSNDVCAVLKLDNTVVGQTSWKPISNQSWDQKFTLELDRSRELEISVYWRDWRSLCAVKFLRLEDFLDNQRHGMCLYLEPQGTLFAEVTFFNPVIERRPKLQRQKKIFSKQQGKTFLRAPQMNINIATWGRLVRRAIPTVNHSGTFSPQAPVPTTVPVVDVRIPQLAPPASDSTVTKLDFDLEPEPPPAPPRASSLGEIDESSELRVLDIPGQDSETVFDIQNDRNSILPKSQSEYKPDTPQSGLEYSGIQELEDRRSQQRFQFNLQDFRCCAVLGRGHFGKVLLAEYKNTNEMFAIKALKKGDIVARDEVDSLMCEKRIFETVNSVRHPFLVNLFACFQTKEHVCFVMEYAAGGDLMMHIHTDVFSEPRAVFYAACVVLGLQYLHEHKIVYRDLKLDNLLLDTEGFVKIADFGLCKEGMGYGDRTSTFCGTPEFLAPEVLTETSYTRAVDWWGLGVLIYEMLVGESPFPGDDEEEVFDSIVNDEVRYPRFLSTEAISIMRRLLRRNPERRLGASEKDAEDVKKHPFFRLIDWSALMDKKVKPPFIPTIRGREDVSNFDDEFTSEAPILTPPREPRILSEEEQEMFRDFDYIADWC

p38-beta, sequence (Q15759 whole entry): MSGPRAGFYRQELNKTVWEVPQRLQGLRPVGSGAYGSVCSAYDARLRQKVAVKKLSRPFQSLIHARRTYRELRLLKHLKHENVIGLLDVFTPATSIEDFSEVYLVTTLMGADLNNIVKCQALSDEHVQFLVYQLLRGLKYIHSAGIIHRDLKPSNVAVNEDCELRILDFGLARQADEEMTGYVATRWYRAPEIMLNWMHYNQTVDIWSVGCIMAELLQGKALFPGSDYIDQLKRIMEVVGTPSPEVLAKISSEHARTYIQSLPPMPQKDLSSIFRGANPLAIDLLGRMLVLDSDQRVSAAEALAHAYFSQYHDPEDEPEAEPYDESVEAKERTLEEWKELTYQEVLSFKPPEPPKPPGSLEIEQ
PRKCI, sequence (P41743 whole entry): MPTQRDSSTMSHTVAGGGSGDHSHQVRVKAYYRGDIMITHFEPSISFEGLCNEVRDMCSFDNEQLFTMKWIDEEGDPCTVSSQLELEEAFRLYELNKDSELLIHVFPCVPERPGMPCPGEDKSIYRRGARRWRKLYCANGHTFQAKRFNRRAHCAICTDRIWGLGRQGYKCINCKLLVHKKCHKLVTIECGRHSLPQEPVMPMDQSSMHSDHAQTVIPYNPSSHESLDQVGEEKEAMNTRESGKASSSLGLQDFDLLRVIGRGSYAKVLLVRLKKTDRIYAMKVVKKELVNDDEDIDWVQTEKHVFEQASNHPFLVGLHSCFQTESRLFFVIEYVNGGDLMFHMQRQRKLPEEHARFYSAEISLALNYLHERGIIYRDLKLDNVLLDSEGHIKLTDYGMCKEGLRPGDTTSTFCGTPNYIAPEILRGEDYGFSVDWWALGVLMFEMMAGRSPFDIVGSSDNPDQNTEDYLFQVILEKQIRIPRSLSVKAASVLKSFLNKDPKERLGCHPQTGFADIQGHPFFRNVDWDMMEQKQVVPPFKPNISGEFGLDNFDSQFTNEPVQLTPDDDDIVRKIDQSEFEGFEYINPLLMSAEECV
JAK2, sequence (O60674 whole entry): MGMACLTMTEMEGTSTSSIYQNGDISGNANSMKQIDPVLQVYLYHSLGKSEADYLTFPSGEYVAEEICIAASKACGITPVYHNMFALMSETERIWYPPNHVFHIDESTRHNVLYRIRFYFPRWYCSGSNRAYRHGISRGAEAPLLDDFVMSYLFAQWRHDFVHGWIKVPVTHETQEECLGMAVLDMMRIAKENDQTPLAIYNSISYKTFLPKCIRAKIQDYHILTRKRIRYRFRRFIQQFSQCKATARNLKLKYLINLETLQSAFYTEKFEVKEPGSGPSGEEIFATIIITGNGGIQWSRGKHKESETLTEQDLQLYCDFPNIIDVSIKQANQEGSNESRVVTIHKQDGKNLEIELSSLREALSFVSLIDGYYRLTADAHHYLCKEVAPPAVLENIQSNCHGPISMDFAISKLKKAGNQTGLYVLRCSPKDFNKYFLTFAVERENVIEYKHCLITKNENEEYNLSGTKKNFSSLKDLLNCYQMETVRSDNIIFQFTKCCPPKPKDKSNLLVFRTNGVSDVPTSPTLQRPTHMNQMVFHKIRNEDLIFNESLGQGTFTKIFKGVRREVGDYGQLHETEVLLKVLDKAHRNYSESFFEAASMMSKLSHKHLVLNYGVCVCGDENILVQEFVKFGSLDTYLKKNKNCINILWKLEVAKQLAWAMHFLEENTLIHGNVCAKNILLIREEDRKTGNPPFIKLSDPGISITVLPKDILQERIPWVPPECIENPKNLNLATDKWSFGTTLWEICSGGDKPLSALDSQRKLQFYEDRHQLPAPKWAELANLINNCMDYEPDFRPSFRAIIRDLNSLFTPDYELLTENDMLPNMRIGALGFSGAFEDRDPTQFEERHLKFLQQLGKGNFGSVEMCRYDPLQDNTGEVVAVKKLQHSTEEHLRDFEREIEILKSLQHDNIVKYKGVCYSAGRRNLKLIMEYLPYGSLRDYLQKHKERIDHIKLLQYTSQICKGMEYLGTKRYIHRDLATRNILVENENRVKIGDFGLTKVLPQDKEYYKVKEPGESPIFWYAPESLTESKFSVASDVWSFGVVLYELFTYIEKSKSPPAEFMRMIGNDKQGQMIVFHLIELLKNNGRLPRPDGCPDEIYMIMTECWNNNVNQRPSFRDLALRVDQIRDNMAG
NDR1, sequence (Q15208 whole entry): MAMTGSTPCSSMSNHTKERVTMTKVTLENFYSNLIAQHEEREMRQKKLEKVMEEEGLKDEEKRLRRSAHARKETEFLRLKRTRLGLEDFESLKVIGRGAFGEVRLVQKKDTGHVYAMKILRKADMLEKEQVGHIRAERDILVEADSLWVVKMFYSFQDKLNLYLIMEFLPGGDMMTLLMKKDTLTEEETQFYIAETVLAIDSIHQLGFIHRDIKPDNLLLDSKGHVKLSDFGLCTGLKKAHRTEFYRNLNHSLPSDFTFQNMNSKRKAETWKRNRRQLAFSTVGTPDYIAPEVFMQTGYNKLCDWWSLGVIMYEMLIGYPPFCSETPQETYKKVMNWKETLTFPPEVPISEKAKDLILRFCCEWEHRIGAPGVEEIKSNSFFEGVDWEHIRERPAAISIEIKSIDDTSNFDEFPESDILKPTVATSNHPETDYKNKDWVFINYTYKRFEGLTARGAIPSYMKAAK

In general, IC50 refers to the concentration that inhibits the measured activity by half. Take `CCN1CCN(Cc2cc(NC(=O)c3ccc(C)c(-c4ccc5nc(NC(=O)C6CC6)cn5n4)c3)cc(C(F)(F)F)c2)CC1` [Compound I-2, 3-(2-(cyclopropanecarboxamido)imidazo[1,2-b]pyridazin-6-yl)-N-(3-((4-ethylpiperazin-1-yl)methyl)-5-(trifluoromethyl)phenyl)-4-methylbenzamide]: in test [1], the IC50 turned out to be 190 nM. In addition, the remaining binding at 1 µM in test [2] came to 66%; in test [3], 41%; in test [4], 100%; in test [5], 60%; in test [6] it was 0.3%; in test [7], 77%.
For `CCN1CCN(Cc2cc(NC(=O)c3ccc(C)c(-c4ccc5nc(NC(=O)C6CC6)cn5c4)c3)cc(C(F)(F)F)c2)CC1` [Compound I-6, 3-(2-(cyclopropanecarboxamido)imidazo[1,2-a]pyridin-6-yl)-N-(3-((4-ethylpiperazin-1-yl)methyl)-5-(trifluoromethyl)phenyl)-4-methylbenzamide], in test [1], the half-maximal inhibitory concentration (IC50) came out at 284 nM. The remaining binding at 1 µM in test [2] was 100%; in test [3], 64%; in test [4], 85%; in test [5], 62%; in test [6] it was 0.25%; in test [7], 100%.

The record behind these values is US20230391768A2, “IMIDAZOPYRIDINE DERIVATIVES AND AZA-IMIDAZOPYRIDINE DERIVATIVES AS JANUS KINASE 2 INHIBITORS AND USES THEREOF” (Dana-Farber Cancer Institute, Inc., priority 2018, published 2023).
